Measurements: US7727736B2, “Soluble phospholipids for use in clotting factor assays” (The University of North Carolina at Chapel Hill, priority 2003, dated 2010)

Key:
[1] = molecular target: T1, FXa (Homo sapiens, UniProt P00742); set-up: Human prothrombin and factor Xa; purchased Hematologic Technologies Inc. (factor Xa); factor Va from human plasma, in house; conditions: Nesheim et al. (1979); cited from earlier work
[2] = molecular target: T1, FXa; experiment: Influence of DAPA on FXa activity in prothrombin activation; assay type: biochemical; set-up: Human prothrombin and factor Xa; purchased Hematologic Technologies Inc. (factor Xa); factor Va from human plasma, in house; conditions: in the presence of C6PS, concentration of DAPA used herein
Description: Despite this, it has been shown that it provides rates of prothrombin activation in the presence of PS/PC membranes equivalent to those detected by activity measurements (Wu, et al. (2002) supra; Weinreb, et al. (2003) supra). To test whether DAPA influenced the activity of FXa in the presence of C6PS, the expected DAPA fluorescence was calculated based on the rate of appearance of thrombin and MzIIa, as detected by synthetic substrate assay as recorded in FIG. 6A. This calculation has been described (Wu, et al. (2002) supra) and its results, as applied to the data herein, are shown in the inset to FIG. 6A (filled circles) along with an experimental time-course of DAPA fluorescence change (open diamonds) reflecting prothrombin activation. Similar results were obtained at the other prothrombin concentrations examined.

T1 sequence (P00742 41-179 limits assumed): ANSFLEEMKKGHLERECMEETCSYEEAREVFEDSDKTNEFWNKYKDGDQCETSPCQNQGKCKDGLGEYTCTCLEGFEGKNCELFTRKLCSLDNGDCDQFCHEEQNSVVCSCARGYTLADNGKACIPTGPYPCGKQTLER
T1 sequence (P00742 235-488 limits assumed): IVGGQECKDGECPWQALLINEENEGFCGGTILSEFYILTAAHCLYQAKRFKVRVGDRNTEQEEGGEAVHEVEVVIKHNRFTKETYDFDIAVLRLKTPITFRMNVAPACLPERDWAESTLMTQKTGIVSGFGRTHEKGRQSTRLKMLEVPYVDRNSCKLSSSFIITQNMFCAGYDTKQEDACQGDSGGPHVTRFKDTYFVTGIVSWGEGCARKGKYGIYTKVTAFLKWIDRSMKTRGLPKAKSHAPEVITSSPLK
T1 sequence (P12259 29-737 partner limits assumed): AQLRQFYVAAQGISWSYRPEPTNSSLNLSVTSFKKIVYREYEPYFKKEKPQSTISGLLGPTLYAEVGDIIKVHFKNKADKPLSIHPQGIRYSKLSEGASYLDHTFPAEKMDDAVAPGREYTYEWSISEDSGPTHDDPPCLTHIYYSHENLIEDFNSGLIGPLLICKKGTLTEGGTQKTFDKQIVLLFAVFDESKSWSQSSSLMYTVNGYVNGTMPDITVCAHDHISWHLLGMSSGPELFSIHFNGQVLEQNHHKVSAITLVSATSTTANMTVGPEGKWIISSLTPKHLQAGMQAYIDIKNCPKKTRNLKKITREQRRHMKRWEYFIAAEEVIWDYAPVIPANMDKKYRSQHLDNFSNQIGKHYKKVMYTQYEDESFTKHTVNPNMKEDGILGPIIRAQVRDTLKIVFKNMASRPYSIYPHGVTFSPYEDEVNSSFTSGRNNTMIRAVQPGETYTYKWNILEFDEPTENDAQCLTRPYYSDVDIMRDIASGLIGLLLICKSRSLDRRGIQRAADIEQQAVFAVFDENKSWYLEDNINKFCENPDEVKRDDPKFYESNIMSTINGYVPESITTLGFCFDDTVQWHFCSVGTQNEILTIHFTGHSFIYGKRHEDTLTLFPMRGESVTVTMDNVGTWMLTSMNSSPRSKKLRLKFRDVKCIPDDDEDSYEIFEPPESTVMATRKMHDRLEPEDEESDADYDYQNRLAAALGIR
T1 sequence (P12259 1574-2224 partner limits assumed): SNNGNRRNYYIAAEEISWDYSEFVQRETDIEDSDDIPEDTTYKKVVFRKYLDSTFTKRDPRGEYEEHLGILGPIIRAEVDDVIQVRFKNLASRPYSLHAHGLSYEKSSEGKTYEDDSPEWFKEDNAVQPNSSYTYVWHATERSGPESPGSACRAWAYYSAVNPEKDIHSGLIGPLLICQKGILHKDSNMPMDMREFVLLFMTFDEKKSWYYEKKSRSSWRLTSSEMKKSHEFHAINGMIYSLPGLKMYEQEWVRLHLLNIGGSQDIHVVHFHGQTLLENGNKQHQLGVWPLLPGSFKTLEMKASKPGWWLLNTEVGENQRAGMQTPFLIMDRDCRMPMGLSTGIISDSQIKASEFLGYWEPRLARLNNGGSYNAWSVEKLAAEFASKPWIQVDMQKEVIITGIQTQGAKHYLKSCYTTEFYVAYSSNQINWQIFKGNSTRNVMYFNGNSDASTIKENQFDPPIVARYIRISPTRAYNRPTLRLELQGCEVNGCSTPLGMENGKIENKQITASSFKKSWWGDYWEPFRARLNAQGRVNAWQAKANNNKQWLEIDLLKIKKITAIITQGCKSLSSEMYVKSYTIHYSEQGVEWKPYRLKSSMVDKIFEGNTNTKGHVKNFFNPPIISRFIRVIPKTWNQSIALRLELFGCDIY

CCC1CCN(C(=O)C(CCCN=C(N)N)NS(=O)(=O)c2cccc3c(N(C)C)cccc23)CC1 (centres unmarked) [DAPA, dansylarginine-N-(3-ethyl-1,5-pentanediyl) amide]
inhibition of FXa by DAPA [1]: weak competitive inhibitor
influence of DAPA on FXa activity [2]: does not influence FXa activity to a measurable extent
